Laboratory results published in US20230233569A1 (Revolution Medicines, Inc., priority 2020, published 2023).
pIC50: −log10 of the molar value.

Key:
Capan-1 (K-Ras G12V) = experiment: CellTiter-Glo cell viability assay, 5-day treatment; assay type: cell-based; conditions: Homo sapiens, CAPAN-1, 120 h, 5-day treatment; read-out: Capan-1 Cell Viability assay data (K-Ras G12V, IC50)
Summary of the method: (§1)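 Five-day compound treatment of plated cells; luminescent read after ~30 min at RT. Percent-of-DMSO data fit to a four-parameter logistic model.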

NCI-H358 (K-Ras G12C) = experiment: as above; assay type: cell-based; conditions: Homo sapiens, NCI-H358, 120 h, 5-day treatment; read-out: H358 Cell Viability assay data (K-Ras G12C, IC50)
Summary of the method: as §1

KRAS G12C = KRAS G12C (Homo sapiens, UniProt P01116+P62937, G12C); experiment: Disruption of BRAF RBD interaction with Ras (FRET / MOA assay, with Cyclophilin A); assay type: biochemical; conditions: read-out: KRAS G12C FRET data, IC50
Summary of the method: (§2)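 Cyclophilin A-dependent ternary complex assay. K-Ras loaded with nucleotide; BRAF RBD as effector. Cpd top 30 μM final, 3 h at 25 °C. Readout: TR-FRET ratio, IC50.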

KRAS G12D = KRAS G12D (Homo sapiens, UniProt P01116+P62937, G12D); experiment: as above; assay type: biochemical; conditions: read-out: KRAS G12D FRET data, IC50
Summary of the method: as §2

KRAS G12S = KRAS G12S (Homo sapiens, UniProt P01116+P62937, G12S); experiment: as above; assay type: biochemical; conditions: read-out: KRAS G12S FRET data, IC50
Summary of the method: as §2

KRAS G12V = KRAS G12V (Homo sapiens, UniProt P01116+P62937, G12V); experiment: as above; assay type: biochemical; conditions: KRAS G12V; read-out: KRAS G12V FRET data IC50
Summary of the method: as §2

KRAS G13C = KRAS G13C (Homo sapiens, UniProt P01116+P62937, G13C); experiment: as above; assay type: biochemical; conditions: read-out: KRAS G13C FRET data, IC50
Summary of the method: as §2

KRAS G13D = KRAS G13D (Homo sapiens, UniProt P01116+P62937, G13D); experiment: as above; assay type: biochemical; conditions: KRAS G13D; read-out: KRAS G13D FRET data IC50
Summary of the method: as §2

KRAS WT = KRAS WT (Homo sapiens, UniProt P01116+P62937); experiment: as above; assay type: biochemical; conditions: KRAS WT; read-out: KRAS WT FRET data IC50
Summary of the method: as §2

NRAS G12C = NRAS G12C (Homo sapiens, UniProt P01111+P62937, G12C); experiment: as above; assay type: biochemical; conditions: NRAS G12C; read-out: NRAS G12C FRET data IC50
Sequence of NRAS G12C (P01111 whole entry G12C): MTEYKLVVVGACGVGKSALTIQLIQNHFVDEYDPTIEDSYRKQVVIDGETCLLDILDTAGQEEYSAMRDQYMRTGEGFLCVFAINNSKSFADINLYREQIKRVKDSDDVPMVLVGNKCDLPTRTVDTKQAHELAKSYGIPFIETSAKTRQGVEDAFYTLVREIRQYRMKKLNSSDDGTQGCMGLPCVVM
Sequence of NRAS G12C (P62937 whole entry): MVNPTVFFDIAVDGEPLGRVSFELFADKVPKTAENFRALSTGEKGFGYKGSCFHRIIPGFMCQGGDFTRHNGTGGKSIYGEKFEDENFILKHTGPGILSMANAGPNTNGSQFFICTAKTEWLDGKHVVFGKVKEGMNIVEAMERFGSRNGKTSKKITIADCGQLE

Sequence of KRAS G12C (P01116 1-169 isoform P01116-2 G12C): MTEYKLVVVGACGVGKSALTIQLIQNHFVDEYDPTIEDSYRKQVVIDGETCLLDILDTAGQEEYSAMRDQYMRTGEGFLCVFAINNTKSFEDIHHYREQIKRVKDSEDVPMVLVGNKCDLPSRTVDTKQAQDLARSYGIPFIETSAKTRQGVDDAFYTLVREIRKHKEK
Sequence of KRAS G12C (P62937 whole entry): as the sequence (P62937 whole entry) above
Sequence of KRAS G12D (P01116 1-169 isoform P01116-2 G12D limits assumed): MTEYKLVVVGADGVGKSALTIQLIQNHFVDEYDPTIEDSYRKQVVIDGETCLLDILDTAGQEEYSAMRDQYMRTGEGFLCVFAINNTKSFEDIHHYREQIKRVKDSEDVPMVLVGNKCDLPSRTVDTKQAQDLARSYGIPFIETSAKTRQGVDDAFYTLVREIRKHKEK
Sequence of KRAS G12D (P62937 whole entry): as the sequence (P62937 whole entry) above
Sequence of KRAS G12S (P01116 1-169 isoform P01116-2 G12S limits assumed): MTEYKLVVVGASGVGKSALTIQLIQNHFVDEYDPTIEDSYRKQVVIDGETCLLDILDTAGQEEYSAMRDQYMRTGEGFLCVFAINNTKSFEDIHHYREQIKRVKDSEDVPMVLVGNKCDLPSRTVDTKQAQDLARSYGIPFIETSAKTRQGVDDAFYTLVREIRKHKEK
Sequence of KRAS G12S (P62937 whole entry): as the sequence (P62937 whole entry) above
Sequence of KRAS G13C (P01116 1-169 isoform P01116-2 G13C): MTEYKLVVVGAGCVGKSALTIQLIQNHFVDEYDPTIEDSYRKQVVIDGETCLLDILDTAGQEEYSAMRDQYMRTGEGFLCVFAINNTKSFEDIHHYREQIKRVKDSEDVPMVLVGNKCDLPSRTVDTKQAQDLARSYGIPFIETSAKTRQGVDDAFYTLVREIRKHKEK
Sequence of KRAS G13C (P62937 whole entry): as the sequence (P62937 whole entry) above
Sequence of KRAS WT (P01116 1-169 isoform P01116-2 limits assumed): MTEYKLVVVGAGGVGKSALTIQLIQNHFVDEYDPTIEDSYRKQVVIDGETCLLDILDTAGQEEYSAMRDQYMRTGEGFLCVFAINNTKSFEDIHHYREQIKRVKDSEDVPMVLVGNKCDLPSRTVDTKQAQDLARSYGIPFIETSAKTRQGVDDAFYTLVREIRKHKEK
Sequence of KRAS WT (P62937 whole entry): as the sequence (P62937 whole entry) above
Sequence of KRAS G12V (P01116 1-169 isoform P01116-2 G12V limits assumed): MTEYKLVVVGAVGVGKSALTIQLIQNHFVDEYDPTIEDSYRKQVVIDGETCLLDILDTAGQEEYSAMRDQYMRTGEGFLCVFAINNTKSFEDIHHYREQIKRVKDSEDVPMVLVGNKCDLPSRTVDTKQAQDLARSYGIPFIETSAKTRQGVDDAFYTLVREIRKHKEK
Sequence of KRAS G12V (P62937 whole entry): as the sequence (P62937 whole entry) above
Sequence of KRAS G13D (P01116 1-169 isoform P01116-2 G13D limits assumed): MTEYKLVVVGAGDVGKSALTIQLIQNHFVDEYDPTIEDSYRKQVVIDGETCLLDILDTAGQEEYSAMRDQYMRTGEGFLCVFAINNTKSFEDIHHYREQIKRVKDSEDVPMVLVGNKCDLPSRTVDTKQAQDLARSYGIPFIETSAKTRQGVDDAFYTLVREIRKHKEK
Sequence of KRAS G13D (P62937 whole entry): as the sequence (P62937 whole entry) above

Row | pIC50 (NCI-H358 (K-Ras G12C)) | pIC50 (KRAS G12C) | pIC50 (KRAS G12D) | pIC50 (KRAS G12S) | pIC50 (KRAS G12V) | pIC50 (KRAS G13C) | pIC50 (KRAS G13D) | pIC50 (KRAS WT) | pIC50 (NRAS G12C) | Compound | pIC50 (Capan-1 (K-Ras G12V))
1 | 5.00 to 6.00 | 7.00 to 8.00 | 7.00 to 8.00 | 7.00 to 8.00 | 5.00 to 6.00 | 7.00 to 8.00 | 7.00 to 8.00 | 7.00 to 8.00 | 6.00 to 7.00 | CCn1c(-c2cccnc2[C@H](C)OC)c2c3cc(ccc31)-c1cc(O)cc(c1)C[C@H](NC(=O)[C@H](C(C)C)N(C)C(=O)[C@H]1CCN(CCO)C1)C(=O)N1CCC[C@H](N1)C(=O)OCC(C)(C)C2 [Example A111] | 5.00 to 6.00
2 | 7.00 to 8.00 | 7.00 to 8.00 | 6.00 to 7.00 | 6.00 to 7.00 | 6.00 to 7.00 | 6.00 to 7.00 | 6.00 to 7.00 | 6.00 to 7.00 | 7.00 to 8.00 | CCn1c(-c2cccnc2[C@H](C)OC)c2c3cc(ccc31)-c1csc(n1)C[C@H](NC(=O)[C@H](C(C)C)N(C)C(=O)N(C)C(C)C)C(=O)N1CCC[C@H](N1)C(=O)OCC(C)(C)C2 [Example A350] | 6.00 to 7.00
3 | 7.00 to 8.00 | 5.00 to 6.00 | < 5.00 | 5.00 to 6.00 | 5.00 to 6.00 | 5.00 to 6.00 | 5.00 to 6.00 | 5.00 to 6.00 | 5.00 to 6.00 | CCn1c(-c2cccnc2[C@H](C)OC)c2c3cc(ccc31)-c1csc(n1)C[C@H](NC(=O)[C@H](C1CCCC1)N(C)C(C)=O)C(=O)N1CCC[C@H](N1)C(=O)OCC(C)(C)C2 [Example A141] | 7.00 to 8.00
4 | 7.00 to 8.00 | 7.00 to 8.00 | 6.00 to 7.00 | 6.00 to 7.00 | 6.00 to 7.00 | 6.00 to 7.00 | 6.00 to 7.00 | 6.00 to 7.00 | 7.00 to 8.00 | CCn1c(-c2cccnc2[C@H](C)OC)c2c3cc(ccc31)-c1csc(n1)C[C@H](NC(=O)[C@H](C(C)C)N(C)C(=O)N1CC(N3CCN(C)CC3)C1)C(=O)N1CCC[C@H](N1)C(=O)OCC(C)(C)C2 [Example A288] | 7.00 to 8.00
5 | 6.00 to 7.00 | 7.00 to 8.00 | 6.00 to 7.00 | 6.00 to 7.00 | 6.00 to 7.00 | 7.00 to 8.00 | 6.00 to 7.00 | 7.00 to 8.00 | 7.00 to 8.00 | CCn1c(-c2cccnc2[C@H](C)OC)c2c3cc(ccc31)-c1cc(O)cc(c1)C[C@H](NC(=O)[C@H](C(C)C)N(C)C(=O)[C@H]1CC1(F)F)C(=O)N1CCC[C@H](N1)C(=O)OCC(C)(C)C2 [Example A166] | 6.00 to 7.00
6 | 7.00 to 8.00 | 7.00 to 8.00 | 6.00 to 7.00 | 7.00 to 8.00 | 7.00 to 8.00 | 7.00 to 8.00 | 6.00 to 7.00 | 7.00 to 8.00 | 7.00 to 8.00 | CCn1c(-c2cccnc2[C@H](C)OC)c2c3cc(ccc31)-c1cc(O)cc(c1)C[C@H](NC(=O)[C@H](C(C)C)N(C)C(=O)C1CC13CC3)C(=O)N1CCC[C@H](N1)C(=O)OCC(C)(C)C2 (some centres unmarked) [Example A156] | 7.00 to 8.00
7 | 6.00 to 7.00 | 7.00 to 8.00 | 6.00 to 7.00 | 6.00 to 7.00 | 6.00 to 7.00 | 6.00 to 7.00 | 6.00 to 7.00 | 7.00 to 8.00 | 7.00 to 8.00 | CCn1c(-c2cccnc2[C@H](C)OC)c2c3cc(ccc31)-c1cc(O)cc(c1)C[C@H](NC(=O)[C@H](C(C)C)N(C)C(=O)[C@@H]1CC1(C)C)C(=O)N1CCC[C@H](N1)C(=O)OCC(C)(C)C2 [Example A157] | 6.00 to 7.00
8 | 6.00 to 7.00 | 5.00 to 6.00 | < 5.00 | 5.00 to 6.00 | 5.00 to 6.00 | 5.00 to 6.00 | 5.00 to 6.00 | 5.00 to 6.00 | 5.00 to 6.00 | CCn1c(-c2cccnc2[C@H](C)OC)c2c3cc(ccc31)-c1csc(n1)C[C@H](NC(=O)[C@H](C(C)C)N(C)C(=O)[C@@H]1OCC[C@@H]1C)C(=O)N1CCC[C@H](N1)C(=O)OCC(C)(C)C2 [Example A143] | 6.00 to 7.00
